Laboratory results taken from ChEMBL document CHEMBL5338754, “Identification of Binding Sites in the Nucleotide-Binding Domain of P-Glycoprotein for a Potent and Nontoxic Modulator, the Amine-Containing Monomeric Flavonoid FM04” (J Med Chem, 2023).

How the values were obtained:
[1] = target: ATP-dependent translocase ABCB1 (Homo sapiens, UniProt P08183, Q1193T); test: Negative allosteric modulator activity at human P-gp Q1193T mutant expressed in HEK293FT cells assessed as reversal of P-gp mediated PTX resistance by measuring sensitivity fold change incubated for 5 days by MTS assay; format: cell-based; conditions: 120 h, time 5 day
[2] = target: T1, ATP-dependent translocase ABCB1 (Homo sapiens, UniProt P08183, Q1193N); test: Negative allosteric modulator activity at human P-gp Q1193N mutant expressed in HEK293FT cells assessed as reversal of P-gp mediated PTX resistance by measuring sensitivity fold change incubated for 5 days by MTS assay; format: cell-based; conditions: 120 h, time 5 day
[3] = target: ATP-dependent translocase ABCB1 (Homo sapiens, UniProt P08183, T1226Y); test: Negative allosteric modulator activity at human P-gp T1226Y mutant expressed in HEK293FT cells assessed as reversal of P-gp mediated PTX resistance by measuring sensitivity fold change incubated for 5 days by MTS assay; format: cell-based; conditions: 120 h, time 5 day
[4] = target: ATP-dependent translocase ABCB1 (Homo sapiens, UniProt P08183, I1115A); test: Negative allosteric modulator activity at human P-gp I1115A mutant expressed in HEK293FT cells assessed as increase in intracellular doxorubicin accumulation using doxorubicin as substrate at 1 uM incubated for 150 mins by microplate reader assay (reference value: 91.6 +/- 4.4 %); format: cell-based; conditions: 2.5 h
[5] = target: ATP-dependent translocase ABCB1 (Homo sapiens, UniProt P08183, C1227A); test: Negative allosteric modulator activity at human P-gp C1227A mutant expressed in HEK293FT cells assessed as increase in intracellular doxorubicin accumulation using doxorubicin as substrate at 1 uM incubated for 150 mins by microplate reader assay (reference value: 33.3 +/- 1.3 %); format: cell-based; conditions: 2.5 h
[6] = target: ATP-dependent translocase ABCB1 (Homo sapiens, UniProt P08183, Q1193K); test: Negative allosteric modulator activity at human P-gp Q1193K mutant expressed in HEK293FT cells assessed as increase in intracellular doxorubicin accumulation using doxorubicin as substrate at 1 uM incubated for 150 mins by microplate reader assay (reference value: 69.1 +/- 1 %); format: cell-based; conditions: 2.5 h
[7] = target: T2, ATP-dependent translocase ABCB1 (Homo sapiens, UniProt P08183, I1115Y); test: Negative allosteric modulator activity at human P-gp I1115Y mutant expressed in HEK293FT cells assessed as increase in intracellular doxorubicin accumulation using doxorubicin as substrate at 1 uM incubated for 150 mins by microplate reader assay (reference value: 97.3 +/- 3.7 %); format: cell-based; conditions: 2.5 h
[8] = target: T3, ATP-dependent translocase ABCB1 (Homo sapiens, UniProt P08183, I1115M); test: Negative allosteric modulator activity at human P-gp I1115M mutant expressed in HEK293FT cells assessed as increase in intracellular doxorubicin accumulation using doxorubicin as substrate at 1 uM incubated for 150 mins by microplate reader assay (reference value: 97 +/- 3.1 %); format: cell-based; conditions: 2.5 h
[9] = target: T4, ATP-dependent translocase ABCB1 (Homo sapiens, UniProt P08183, I1115F); test: Negative allosteric modulator activity at human P-gp I1115F mutant expressed in HEK293FT cells assessed as increase in intracellular doxorubicin accumulation using doxorubicin as substrate at 1 uM incubated for 150 mins by microplate reader assay (reference value: 65.5 +/- 0.9 %); format: cell-based; conditions: 2.5 h
[10] = target: ATP-dependent translocase ABCB1 (Homo sapiens, UniProt P08183, G1114A); test: Negative allosteric modulator activity at human P-gp G1114A mutant expressed in HEK293FT cells assessed as fold change in intracellular doxorubicin accumulation using doxorubicin as substrate at 1 uM incubated for 150 mins by microplate reader assay relative to DMSO; format: cell-based; conditions: 2.5 h
[11] = target: ATP-dependent translocase ABCB1 (Homo sapiens, UniProt P08183, L1113A); test: Negative allosteric modulator activity at human P-gp L1113A mutant expressed in HEK293FT cells assessed as fold change in intracellular doxorubicin accumulation using doxorubicin as substrate at 1 uM incubated for 150 mins by microplate reader assay relative to DMSO; format: cell-based; conditions: 2.5 h
[12] = target: ATP-dependent translocase ABCB1 (Homo sapiens, UniProt P08183, Q1193C); test: Negative allosteric modulator activity at human P-gp Q1193C mutant expressed in HEK293FT cells assessed as fold change in intracellular doxorubicin accumulation using doxorubicin as substrate at 1 uM incubated for 150 mins by microplate reader assay relative to DMSO; format: cell-based; conditions: 2.5 h
[13] = target: ATP-dependent translocase ABCB1 (Homo sapiens, UniProt P08183, G1114V); test: Negative allosteric modulator activity at human P-gp G1114V mutant expressed in HEK293FT cells assessed as fold change in intracellular doxorubicin accumulation using doxorubicin as substrate at 1 uM incubated for 150 mins by microplate reader assay relative to DMSO; format: cell-based; conditions: 2.5 h
[14] = target: T2, ATP-dependent translocase ABCB1; test: Negative allosteric modulator activity at human P-gp I1115Y mutant expressed in HEK293FT cells assessed as fold change in intracellular doxorubicin accumulation using doxorubicin as substrate at 1 uM incubated for 150 mins by microplate reader assay relative to DMSO; format: cell-based; conditions: 2.5 h
[15] = target: ATP-dependent translocase ABCB1 (Homo sapiens, UniProt P08183, I1115N); test: Negative allosteric modulator activity at human P-gp I1115N mutant expressed in HEK293FT cells assessed as fold change in intracellular doxorubicin accumulation using doxorubicin as substrate at 1 uM incubated for 150 mins by microplate reader assay relative to DMSO; format: cell-based; conditions: 2.5 h
[16] = target: T3, ATP-dependent translocase ABCB1; test: Negative allosteric modulator activity at human P-gp I1115M mutant expressed in HEK293FT cells assessed as fold change in intracellular doxorubicin accumulation using doxorubicin as substrate at 1 uM incubated for 150 mins by microplate reader assay relative to DMSO; format: cell-based; conditions: 2.5 h
[17] = target: T4, ATP-dependent translocase ABCB1; test: Negative allosteric modulator activity at human P-gp I1115F mutant expressed in HEK293FT cells assessed as fold change in intracellular doxorubicin accumulation using doxorubicin as substrate at 1 uM incubated for 150 mins by microplate reader assay relative to DMSO; format: cell-based; conditions: 2.5 h
[18] = target: T1, ATP-dependent translocase ABCB1; test: Activation of P-gp ATPase activity in human P-gp Q1193N mutant expressed in HEK293FT cell microsomes at 20 uM incubated for 1 hr in presence of ATP by Glo-luminescence based microplate reader assay (reference value: 0.34 +/- 0.05 pmol/min/microg); set-up: species or system Microsome
[19] = target: P-gp (ABCB1) I1115F mutant (Homo sapiens, UniProt P08183, I1115F); test: Activation of P-gp ATPase activity in human P-gp I1115F mutant expressed in HEK293FT cell microsomes assessed as fold change of ATPase activity at 20 uM incubated for 1 hr in presence of ATP by Glo-luminescence based microplate reader assay relative to DMSO; set-up: species or system Microsome; conditions: read-out: FC
[20] = target: P-gp (ABCB1) Q1193N mutant (Homo sapiens, UniProt P08183, Q1193N); test: Activation of P-gp ATPase activity in human P-gp Q1193N mutant expressed in HEK293FT cell microsomes assessed as fold change of ATPase activity at 20 uM incubated for 1 hr in presence of ATP by Glo-luminescence based microplate reader assay relative to DMSO; set-up: species or system Microsome; conditions: read-out: FC

T1 sequence (P08183 whole entry Q1193N): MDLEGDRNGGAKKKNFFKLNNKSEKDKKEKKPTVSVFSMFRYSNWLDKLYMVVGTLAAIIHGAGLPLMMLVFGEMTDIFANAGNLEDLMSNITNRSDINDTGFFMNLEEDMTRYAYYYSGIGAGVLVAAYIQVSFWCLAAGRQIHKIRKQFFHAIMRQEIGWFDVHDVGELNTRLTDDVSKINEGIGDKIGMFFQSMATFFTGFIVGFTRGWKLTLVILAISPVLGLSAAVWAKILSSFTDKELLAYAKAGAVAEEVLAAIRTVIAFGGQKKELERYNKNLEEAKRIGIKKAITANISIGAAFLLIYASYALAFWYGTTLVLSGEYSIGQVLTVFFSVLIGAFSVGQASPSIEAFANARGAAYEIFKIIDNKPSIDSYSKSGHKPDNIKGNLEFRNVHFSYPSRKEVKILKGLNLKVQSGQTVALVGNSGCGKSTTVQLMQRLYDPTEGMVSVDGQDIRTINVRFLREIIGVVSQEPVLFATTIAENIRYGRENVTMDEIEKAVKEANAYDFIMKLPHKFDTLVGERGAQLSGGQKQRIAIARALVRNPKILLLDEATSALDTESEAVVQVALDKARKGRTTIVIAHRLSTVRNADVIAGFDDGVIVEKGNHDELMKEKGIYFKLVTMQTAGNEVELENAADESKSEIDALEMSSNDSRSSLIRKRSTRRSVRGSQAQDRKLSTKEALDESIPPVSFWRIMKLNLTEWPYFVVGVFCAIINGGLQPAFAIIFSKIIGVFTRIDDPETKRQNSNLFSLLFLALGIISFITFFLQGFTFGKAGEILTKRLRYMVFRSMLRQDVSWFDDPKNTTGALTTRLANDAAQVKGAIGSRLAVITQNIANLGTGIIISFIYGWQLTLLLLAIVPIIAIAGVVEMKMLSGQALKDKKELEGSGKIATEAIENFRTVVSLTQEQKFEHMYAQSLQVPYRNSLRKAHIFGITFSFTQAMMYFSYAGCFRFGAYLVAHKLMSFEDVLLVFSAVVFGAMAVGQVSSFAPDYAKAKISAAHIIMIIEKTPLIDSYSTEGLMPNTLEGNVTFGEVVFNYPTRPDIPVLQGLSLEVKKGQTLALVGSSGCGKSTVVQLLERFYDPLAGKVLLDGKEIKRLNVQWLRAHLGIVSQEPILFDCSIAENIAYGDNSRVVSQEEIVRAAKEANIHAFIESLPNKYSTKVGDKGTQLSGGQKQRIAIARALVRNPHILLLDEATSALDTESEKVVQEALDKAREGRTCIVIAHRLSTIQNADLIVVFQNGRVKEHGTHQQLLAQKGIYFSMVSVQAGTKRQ
T4 sequence (P08183 whole entry I1115F): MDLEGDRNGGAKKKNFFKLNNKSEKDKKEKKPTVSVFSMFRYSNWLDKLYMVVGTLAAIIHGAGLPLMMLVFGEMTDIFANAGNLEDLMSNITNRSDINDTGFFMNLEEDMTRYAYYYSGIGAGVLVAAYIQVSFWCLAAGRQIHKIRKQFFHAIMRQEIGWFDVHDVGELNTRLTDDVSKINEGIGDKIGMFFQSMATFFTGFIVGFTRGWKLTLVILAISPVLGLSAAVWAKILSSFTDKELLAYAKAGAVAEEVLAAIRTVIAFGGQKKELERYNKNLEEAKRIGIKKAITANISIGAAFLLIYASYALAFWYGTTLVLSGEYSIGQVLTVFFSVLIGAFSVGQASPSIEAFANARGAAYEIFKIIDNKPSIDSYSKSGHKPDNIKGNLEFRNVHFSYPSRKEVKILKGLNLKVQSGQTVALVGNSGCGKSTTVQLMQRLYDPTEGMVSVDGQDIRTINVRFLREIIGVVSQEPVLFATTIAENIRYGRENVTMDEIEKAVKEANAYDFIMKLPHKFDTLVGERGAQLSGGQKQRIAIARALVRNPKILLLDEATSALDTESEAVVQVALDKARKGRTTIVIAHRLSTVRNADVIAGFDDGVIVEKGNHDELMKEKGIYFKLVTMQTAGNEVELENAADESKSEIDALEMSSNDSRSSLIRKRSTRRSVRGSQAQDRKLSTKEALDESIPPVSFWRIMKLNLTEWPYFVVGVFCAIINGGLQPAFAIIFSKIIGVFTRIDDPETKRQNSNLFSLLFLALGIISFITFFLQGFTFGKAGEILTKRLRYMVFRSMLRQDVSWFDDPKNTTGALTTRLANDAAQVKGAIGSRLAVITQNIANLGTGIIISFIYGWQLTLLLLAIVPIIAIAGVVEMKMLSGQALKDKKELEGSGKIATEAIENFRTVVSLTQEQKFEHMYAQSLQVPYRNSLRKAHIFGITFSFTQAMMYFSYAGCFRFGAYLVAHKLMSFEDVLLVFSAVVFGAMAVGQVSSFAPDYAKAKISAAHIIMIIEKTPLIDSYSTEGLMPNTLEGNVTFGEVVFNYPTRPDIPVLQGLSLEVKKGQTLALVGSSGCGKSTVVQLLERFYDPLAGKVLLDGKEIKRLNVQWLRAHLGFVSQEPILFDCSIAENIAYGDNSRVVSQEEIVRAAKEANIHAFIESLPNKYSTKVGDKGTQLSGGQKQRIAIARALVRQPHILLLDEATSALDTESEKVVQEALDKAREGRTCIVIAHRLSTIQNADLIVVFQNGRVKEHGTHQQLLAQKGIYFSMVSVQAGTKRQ
T2 sequence (P08183 whole entry I1115Y): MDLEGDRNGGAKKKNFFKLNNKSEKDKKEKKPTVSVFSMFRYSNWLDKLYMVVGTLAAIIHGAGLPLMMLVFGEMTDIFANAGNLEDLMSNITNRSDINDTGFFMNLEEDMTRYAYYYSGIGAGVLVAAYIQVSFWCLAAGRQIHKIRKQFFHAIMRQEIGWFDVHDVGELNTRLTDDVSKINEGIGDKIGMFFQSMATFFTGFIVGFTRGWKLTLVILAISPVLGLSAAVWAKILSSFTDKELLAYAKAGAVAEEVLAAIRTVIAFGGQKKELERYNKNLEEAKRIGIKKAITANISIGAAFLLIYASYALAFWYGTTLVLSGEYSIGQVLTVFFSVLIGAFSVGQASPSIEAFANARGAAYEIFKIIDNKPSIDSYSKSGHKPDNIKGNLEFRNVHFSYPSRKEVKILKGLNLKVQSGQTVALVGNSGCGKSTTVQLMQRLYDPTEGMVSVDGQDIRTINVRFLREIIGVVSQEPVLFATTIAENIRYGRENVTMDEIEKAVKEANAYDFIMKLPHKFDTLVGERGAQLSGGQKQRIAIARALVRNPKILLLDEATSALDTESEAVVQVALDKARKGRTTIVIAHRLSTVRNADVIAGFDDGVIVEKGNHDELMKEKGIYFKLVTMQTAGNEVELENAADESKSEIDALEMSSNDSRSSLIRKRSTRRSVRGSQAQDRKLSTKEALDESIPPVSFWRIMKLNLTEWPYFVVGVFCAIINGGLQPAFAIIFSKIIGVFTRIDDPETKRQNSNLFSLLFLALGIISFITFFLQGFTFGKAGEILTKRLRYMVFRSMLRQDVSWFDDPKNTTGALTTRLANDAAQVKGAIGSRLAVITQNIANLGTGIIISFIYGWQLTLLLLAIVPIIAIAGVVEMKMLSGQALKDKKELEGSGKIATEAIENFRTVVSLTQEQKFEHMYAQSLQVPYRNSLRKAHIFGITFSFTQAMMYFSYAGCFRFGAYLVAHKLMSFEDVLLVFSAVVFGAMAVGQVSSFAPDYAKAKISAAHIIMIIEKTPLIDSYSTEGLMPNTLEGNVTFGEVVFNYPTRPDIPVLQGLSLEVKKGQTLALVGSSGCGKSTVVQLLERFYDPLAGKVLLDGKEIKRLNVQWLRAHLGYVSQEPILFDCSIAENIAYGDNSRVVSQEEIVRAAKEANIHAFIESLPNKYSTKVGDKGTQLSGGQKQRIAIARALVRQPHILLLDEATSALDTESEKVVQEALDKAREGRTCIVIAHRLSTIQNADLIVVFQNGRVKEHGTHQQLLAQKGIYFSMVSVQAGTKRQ
T3 sequence (P08183 whole entry I1115M): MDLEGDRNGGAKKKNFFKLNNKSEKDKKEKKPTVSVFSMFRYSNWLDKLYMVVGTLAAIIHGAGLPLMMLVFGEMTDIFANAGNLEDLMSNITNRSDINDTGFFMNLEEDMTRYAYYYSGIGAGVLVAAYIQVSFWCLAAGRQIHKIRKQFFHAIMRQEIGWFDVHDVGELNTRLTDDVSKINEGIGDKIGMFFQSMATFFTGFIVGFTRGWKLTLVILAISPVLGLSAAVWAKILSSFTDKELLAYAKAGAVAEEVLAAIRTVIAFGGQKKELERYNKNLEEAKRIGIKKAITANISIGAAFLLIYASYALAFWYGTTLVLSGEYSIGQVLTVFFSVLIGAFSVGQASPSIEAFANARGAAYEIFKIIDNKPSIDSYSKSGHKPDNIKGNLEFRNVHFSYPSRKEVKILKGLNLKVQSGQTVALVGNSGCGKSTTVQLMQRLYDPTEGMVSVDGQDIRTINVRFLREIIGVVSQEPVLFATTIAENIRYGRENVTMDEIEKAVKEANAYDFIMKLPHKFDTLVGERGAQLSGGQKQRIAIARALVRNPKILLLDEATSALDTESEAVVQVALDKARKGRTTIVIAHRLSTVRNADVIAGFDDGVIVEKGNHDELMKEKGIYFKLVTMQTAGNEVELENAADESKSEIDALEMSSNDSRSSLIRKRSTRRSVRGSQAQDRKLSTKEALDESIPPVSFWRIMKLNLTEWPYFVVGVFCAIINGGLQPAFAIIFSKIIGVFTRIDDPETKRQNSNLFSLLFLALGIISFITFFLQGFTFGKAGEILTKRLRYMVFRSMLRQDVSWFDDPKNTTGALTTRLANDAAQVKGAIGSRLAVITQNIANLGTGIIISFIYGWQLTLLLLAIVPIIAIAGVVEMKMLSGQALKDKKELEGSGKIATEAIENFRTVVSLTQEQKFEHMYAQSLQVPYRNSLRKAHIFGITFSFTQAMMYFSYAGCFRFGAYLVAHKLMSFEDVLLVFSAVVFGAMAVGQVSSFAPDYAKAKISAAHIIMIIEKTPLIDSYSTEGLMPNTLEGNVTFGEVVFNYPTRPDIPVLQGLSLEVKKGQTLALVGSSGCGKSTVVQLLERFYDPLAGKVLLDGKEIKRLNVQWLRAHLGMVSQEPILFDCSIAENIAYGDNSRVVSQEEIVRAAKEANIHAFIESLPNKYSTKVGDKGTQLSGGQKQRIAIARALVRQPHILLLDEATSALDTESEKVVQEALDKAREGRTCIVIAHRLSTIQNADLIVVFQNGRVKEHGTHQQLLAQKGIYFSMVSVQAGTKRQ

SMILES: O=c1cc(-c2ccc(OCCOCCNCc3ccccc3)cc2)oc2ccccc12
- fold change (FC) [1]: 8.5
- fold change (FC) [2]: 51.4
- fold change (FC) [3]: 62.4
- Activity [4]: 89.7%
- Activity [5]: 43.8%
- Activity [6]: 87.8%
- Activity [7]: 96.4%
- Activity [8]: 93.3%
- Activity [9]: 83.8%
- fold change (FC) [10]: 1
- fold change (FC) [11]: 1.8
- fold change (FC) [12]: 1.3
- fold change (FC) [13]: 1
- fold change (FC) [14]: 1
- fold change (FC) [15]: 1
- fold change (FC) [16]: 1
- fold change (FC) [17]: 1.3
- Activity [18]: 0.58 pmol/min/µg
- fold induction at 1 h, 20 µM [19]: 1.2
- fold induction at 1 h, 20 µM [20]: 1.7
